In PMC4312198 (Biomaterials, 2014):

Assays:
[1] = system: SKOV-3 ovarian cancer cells; assay: MTS cytotoxicity and combination index, SKOV-3; assay type: cell-based, human
[2] = system: ES-2 ovarian cancer cells; assay: MTS cytotoxicity and combination index, ES-2; assay type: cell-based
Hela cells = assay: MTS cytotoxicity and combination index, Hela; assay type: cell-based; details: 72 h
[3] = system: SKOV3 ovarian cancer tumor; assay: Tissue biodistribution of Pt; assay type: in vivo, mouse; details: 48 h post-injection, CDDP 6 mg/kg i.v.
mouse models = mouse models ref 37, 38; cited from earlier work
[4] = system: SKOV-3 ovarian cancer xenografts; assay: In vivo anticancer efficacy
[5] = Plasma pharmacokinetics of platinum
SKOV-3 tumor xenograft = assay: NIRF optical animal imaging; design: species or system mouse; details: in vivo NIRF after tail vein injection
[6] = Pt in plasma, two compartment model, i.v.

## CC(=O)O[C@H]1C(=O)[C@@]2(C)[C@H]([C@H](OC(=O)c3ccccc3)[C@]3(O)C[C@H](OC(=O)[C@H](O)[C@@H](NC(=O)c4ccccc4)c4ccccc4)C(C)=C1C3(C)C)[C@]1(OC(C)=O)CO[C@@H]1C[C@@H]2O [PTX, paclitaxel]
[1]; Homo sapiens, SK-OV-3, 72 h, read-out: IC50, as PTX concentration
  IC50: 0.032 µg/mL
[2]; 72 h, read-out: IC50, as PTX concentration
  IC50: 0.055 µg/mL
Hela cells; Homo sapiens, HeLa, read-out: IC50, as PTX concentration
  IC50: 0.02 µg/mL

## [NH2][Pt]([NH2])([Cl])[Cl] [CDDP, Cisplatin]
[1]; SKOV-3, 72 h, first figure of x/y cells
  IC50, as CDDP concentration: 1.354 µg/mL
[2]; ES2, 72 h, first figure of x/y cells
  IC50, as CDDP concentration: 0.92 µg/mL
Hela cells; Hela, first figure of x/y cells
  IC50, as CDDP concentration: 2.427 µg/mL
[3]
  Kidney/tumor ratio of Pt concentrations: 4
  Liver/tumor ratio of Pt concentrations: 2
Mouse models
  Maximum tolerated dose (MTD): ≤ 4 mg/kg
[4]; 4 mg/kg CDDP
  Medium survival time: 15 days
[4]; 4 mg/kg CDDP i.v. day 0, 4, 8, on day 12
  Body weight loss: exceeded 20%
[4]; 4 mg/kg CDDP, day 7 after last injection
  WBC counting vs PBS control: significantly decreased
[4]; 4 mg/kg CDDP, died on day 12, 13, 15, 16 and 17
  Animal death due to severe side effects: all animals
[5]; 30 min after i.v. injection
  Pt of injected dose remaining in plasma: 5%
[5]; 24 h after i.v. injection
  Pt of injected dose remaining in plasma: less than 1%
[5]; [6]
  CL2: 9.3217 mL/min/kg
  t1/2α: 2.64 min
[5]; mouse, in vivo
  Clearance rate (Cl) relative to nanotherapeutics, both phases: 20–25 fold

## CCCCCCCCCCCCCCCCCCN1/C(=C/C=C/C=C/C2=[N+](CCCCCCCCCCCCCCCCCC)c3ccccc3C2(C)C)C(C)(C)c2ccccc21.[O-][Cl+3]([O-])([O-])[O-] [free DiD]
SKOV-3 tumor xenograft
  Tumor fluorescence in vivo: very weak tumor fluorescence
